# In article PMC4444023 (PLoS ONE, 2015):
# “And” between values parts separate entries of the source, which are not always exact repeats. Equal values may be shown once. “Also recorded” adds a separate entry of the source.
# How the values were obtained:
# human nSMase2 = biological target: T1, human nSMase2 (Homo sapiens, UniProt Q9NY59); assay: 14C-SM confirmatory direct activity assay; type: biochemical; design: Full length human nSMase2 cDNA with a C-terminal Flag tag; host or cells: HEK293, stably transfected; crude cell lysate used as enzyme
# T1 sequence (Q9NY59 1-655): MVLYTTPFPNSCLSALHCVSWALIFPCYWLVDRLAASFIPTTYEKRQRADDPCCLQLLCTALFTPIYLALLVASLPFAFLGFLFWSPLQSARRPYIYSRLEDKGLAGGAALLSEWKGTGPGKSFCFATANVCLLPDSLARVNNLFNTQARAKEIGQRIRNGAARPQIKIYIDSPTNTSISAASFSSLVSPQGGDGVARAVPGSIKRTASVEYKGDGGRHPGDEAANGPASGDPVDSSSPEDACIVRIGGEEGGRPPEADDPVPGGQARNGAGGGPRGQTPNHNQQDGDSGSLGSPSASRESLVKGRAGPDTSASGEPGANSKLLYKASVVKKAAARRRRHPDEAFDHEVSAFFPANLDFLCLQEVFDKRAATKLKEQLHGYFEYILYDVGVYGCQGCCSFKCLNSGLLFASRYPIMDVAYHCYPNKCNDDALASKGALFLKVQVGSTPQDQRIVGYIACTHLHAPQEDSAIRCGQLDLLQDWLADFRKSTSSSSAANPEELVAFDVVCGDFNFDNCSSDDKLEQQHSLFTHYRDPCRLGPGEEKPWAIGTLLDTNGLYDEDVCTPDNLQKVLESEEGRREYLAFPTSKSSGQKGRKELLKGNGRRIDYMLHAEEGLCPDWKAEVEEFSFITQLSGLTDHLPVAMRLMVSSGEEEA
# Method: This assay was dependent on the direct hydrolysis of ^14C-labeled SM (^14C N-methyl groups in the phosphorylcholine) by human nSMase2. Optimization of assay conditions was accomplished according to the methods of Barbone et al.. Briefly, bovine [N-methyl-^14C]-sphingomyelin (specific activity […], Perkin Elmer) and phosphatidylinositol (Avanti Polar Lipids) were evaporated to dryness under a stream of nitrogen and resuspended at an equimolar concentration of 0.1 mM in water with 0.5% Triton X-100 (Sigma). The solution was vortexed for 30 min and then sonicated for 30 min. Assay conditions were as follows: 50 μl total volume per reaction, consisting of 20 μM SM, reaction buffer (100 mM Tris-HCl pH 7.5, 80 mM MgCl2, 0.1% Triton X-100); 10 μl cell lysate containing recombinant human nSMase2 (0.5–1 μg protein/assay) and 5 μl of compound in reaction buffer containing 10% DMSO. After 1 h incubation at 37°C the reaction was terminated by the addition of 30 μl of water and 175 μl of chloroform/methanol (2:1, v:v), followed by vigorous vortexing. Tubes were centrifuged for 5 min at 10,000 xg at room temperature to separate the organic bottom phase containing labeled SM and the aqueous upper phase containing ^14C-labeled-phosphorylcholine. An aliquot (50 μl) of the upper phase was transferred to a vial with 10 ml of scintillant and counted for 2 min on a Beckman LS-6000IC scintillation counter. Enzyme activity was directly proportional to the disintegrations per min (dpm) resulting from the generation of ^14C-phosphorylcholine.
# [1] = tested on: rat primary hippocampal neurons; assay: Dendrite length (MAP2 imaging); type: cell-based; conditions: for dendrite length, Mean: in µm (unit assumed)
# Method: Quantification of neuronal morphology was done in primary hippocampal neurons plated in PEI-coated ultra-thin and optically clear flat bottom 96-well plates (Corning). […] Neurons were then fixed with 4% paraformaldehyde, and permeabilized with 0.1% Triton X-100 in phosphate-buffered saline (PBS-T) for 20 min at room temperature. Blocking was done for 1 h with 5% normal goat serum solution, then incubation with anti-MAP2 antibody (1:500, Sigma) was done, followed by three washes with PBS-T and 2 h incubation with Alexa 595 secondary antibody (1:500, Life Technologies). Dendrites were imaged with a 20X objective using a Zeiss Axio Observer Z1 microscope equipped with an Orca ER CCD camera (Hamamatsu Inc). A 6x6 image was obtained from each culture well, and a montage was created using Neurolucida imaging software (mbf Biosecience). The effects of the experimental treatments on dendrite length were determined and the results presented are the average of 5–6 individual experiments. Statistical significance was determined by one-way ANOVA analysis.
# SIRT1 = conditions: NAD-dependent deacetylase activity; cited from earlier work
# [2] = tested on: BCL6-expressing Burkitt lymphoma cell lines; design: method as in PMID 16618762; conditions: cited from earlier work
# [3] = tested on: Burkitt lymphoma xenografts; design: method as in PMID 16618762; conditions: mice, cited from earlier work
# [4] = tested on: rat primary hippocampal neurons; assay: Hippocampal neuronal survival (Hoechst 33342); type: cell-based; conditions: for effect on TNF-α or IL-1β-induced neuron cell death (words): Hoechst 33342 staining
# Method: All animal procedures were approved by the Johns Hopkins University Animal Care and Use Committee. Primary hippocampal neurons were prepared from day 18 decapitated embryos of Sprague-Dawley rats following previously described methods. Cells were seeded on polyethyleneimine (PEI)-coated slides in 12-well plates and cultured between 14–21 days. […] After 18 h, cells were stained with 50 μg/ml Hoeschst 33342 for 20 min and then fixed with 4% paraformaldehyde for 30 min. The number of living and apoptotic cells was determined by fluorescence microscopy. A minimum of 500 cells were counted per treatment condition. Results were normalized to control untreated cells and were representative of at least two independent experiments conducted in triplicate. Statistical evaluation of the data was done by Student’s t-test.
smiles,measurement,setting,value
"O=c1[nH]c(=S)[nH]c(-c2ccccc2)c1Cc1c(O)ccc2ccccc12 [Cambinol, cambinol]",%Inhibition,human nSMase2; Log [compound] -3.0,92.0% and 91.0%
same,%Inhibition,human nSMase2; Log [compound] -3.47756,99.0% and 86.0%
same,%Inhibition,human nSMase2; Log [compound] -4.0,83.0% and 80.0%
same,%Inhibition,human nSMase2; Log [compound] -5.0,56.0% and 57.0%
same,%Inhibition,human nSMase2; Log [compound] -5.47756,46.0% and 47.0%
same,%Inhibition,human nSMase2; Log [compound] -6.0,13.0% and 15.0%
same,%Inhibition,human nSMase2; Log [compound] -7.0,0.0% and 10.0%
same,%Inhibition,human nSMase2; Log [compound] -7.47756,8.0% and 10.0%
same,%Inhibition,human nSMase2; Log [compound] -8.0,8.0% and 11.0%
same,%Inhibition,human nSMase2; Log [compound] -8.47756,14.0% and 7.0%
same,%Inhibition,human nSMase2; Log [compound] -9.0,6.0% and 4.0%
same,%Inhibition,human nSMase2; Log [compound] -9.47756,12.0% and 18.0* %
same,inhibition at 10 µM,human nSMase2; at 10 μM,> 80%
same,"dendrite length, Mean","[1]; 100 ng/ml TNFα 18 h, 0.1 µM Cambinol",9111.111
same,"dendrite length, Mean","[1]; 100 ng/ml TNFα 18 h, 0.3 µM Cambinol",11450
same,"dendrite length, Mean","[1]; 100 ng/ml TNFα 18 h, 1 µM Cambinol",13799
same,"dendrite length, Mean","[1]; 100 ng/ml TNFα 18 h, 3 µM Cambinol",14262.5
same,"dendrite length, Mean","[1]; 100 ng/ml TNFα 18 h, 10 µM Cambinol",18867
same,"dendrite length, Mean","[1]; 100 ng/ml TNFα 18 h, 30 µM Cambinol",16000
same,"dendrite length, Mean","[1]; No TNFα, 30 µM Cambinol",15151.25
same,effect on TNFα-induced dendrite damage,[1]; decrease in dendritic length,prevented; also recorded: protected
same,IC50,SIRT1,56 µM
same,apoptosis,[2],induced apoptosis
same,tolerability,[3]; doses as high as 100 mg/kg intravenously,well tolerated
same,anti-cancer efficacy,[3],effective
same,"neuron survival, Mean (normalized to control untreated cells)","[4]; 100 ng/ml IL1β 18 h, 0.1 µM compound",77.25
same,"neuron survival, Mean (normalized to control untreated cells)","[4]; 100 ng/ml IL1β 18 h, 0.3 µM compound",74.03
same,"neuron survival, Mean (normalized to control untreated cells)","[4]; 100 ng/ml IL1β 18 h, 1 µM compound",84.51
same,"neuron survival, Mean (normalized to control untreated cells)","[4]; 100 ng/ml IL1β 18 h, 3 µM compound",93.01
same,"neuron survival, Mean (normalized to control untreated cells)","[4]; 100 ng/ml IL1β 18 h, 10 µM compound",93.58
same,"neuron survival, Mean (normalized to control untreated cells)","[4]; 100 ng/ml IL1β 18 h, 25 µM compound",97.12
same,"neuron survival, Mean (normalized to control untreated cells)","[4]; 100 ng/ml TNFα 18 h, 0.1 µM compound",78.25
same,"neuron survival, Mean (normalized to control untreated cells)","[4]; 100 ng/ml TNFα 18 h, 0.3 µM compound",82.52
same,"neuron survival, Mean (normalized to control untreated cells)","[4]; 100 ng/ml TNFα 18 h, 1 µM compound",86.26
same,"neuron survival, Mean (normalized to control untreated cells)","[4]; 100 ng/ml TNFα 18 h, 3 µM compound",90.17
same,"neuron survival, Mean (normalized to control untreated cells)","[4]; 100 ng/ml TNFα 18 h, 10 µM compound",91.48
same,"neuron survival, Mean (normalized to control untreated cells)","[4]; 100 ng/ml TNFα 18 h, 25 µM compound",92.36
same,effect on TNF-α or IL-1β-induced neuron cell death (words),[4],decreased
same,effect on TNF-α or IL-1β-induced neuron cell death (words),[4]; listed as cambinol,prevent; also recorded: inhibited; also recorded: protected
same,"neuron survival, Mean (normalized to control untreated cells)","[4]; No IL1β, 25 µM compound",91.21
